Reference: patent US20140370079A1, “METHOD FOR TARGETING VASCULAR RHOJ FOR INHIBITING TUMOR ANGIOGENESIS” (Korea Advanced Institute of Science and Technology (KAIST), priority 2013, published 2014)

What was measured:
[1] = tested on: HUVECs; assay: In vitro Matrigel tube formation assay; type: cell-based, human; conditions: siJ-ECs (RhoJ knockdown) with CA4P 20 nM, 12 hr; compared to single treatment
Experimental: (§1) HUVECs were purchased from Lonza, cultured in endothelial growth medium (EGM-2, Lonza) and incubated in a humidified atmosphere with 5% CO2 at 37° C. The cells used were between passages 3 to 8. Transfections of siRNA duplexes into HUVECs were performed using Lipofectamine® RNAiMAX (Invitrogen) at a final concentration of 40 nM according to the manufacturer's protocol.
For matrigel tube formation assay, growth factor reduced Matrigel (BD bioscience) was thawed overnight at 4° C. The Matrigel was allowed to solidify on a 4-well culture dishes at 37° C. for 30 min. Cells were harvested and seeded at a density of 2×10^4 cells/well in growth media. Cells were then incubated at 37° C. for a further 12 hr. Tube formation was observed by taking pictures using a Leica DM IL microscope. The matrigel assays were quantified by counting the number of nodes and tubules from five different fields for each condition.

[2] = tested on: LLC tumor vessels; assay: LLC tumor model, CD31+ tumor vessel density; type: in vivo, mouse; conditions: for reduction of vascular density, intratumoral region / reduction of vascular density, peritumoral region: CA4P 50 mg/kg, 6 days after first treatment
Experimental: (§2) LLC and B16F10 melanoma cells were obtained from American Type Culture Collection. To generate implantation tumor models, suspensions of tumor cells (1×10^6 cells in 100 μl) were SC injected into the dorsal flank of 8 to 10 weeks old mice. Tumor volumes were measured at given time points. Tumor volume was calculated according to the formula, 0.5×A×B^2, where A is the largest diameter of a tumor and B is its perpendicular diameter. Tumor growth rate is defined as increased tumor volume relative to 2 days before. Indicated days later, the mice were anesthetized and tissues were harvested for further analyses. Tamoxifen (4 mg/kg, 4 times every 2 days, Sigma-Aldrich) was IP injected into Cdh5(PAC)-Cre^ERT2;Rhor^fl/fl mice starting from the day before tumor implantation or after the tumor volume had exceeded 300 mm^3. Cisplatin (10 mg/kg, every 7 days, Sigma-Aldrich) is IP injected for cytotoxic chemotherapy when tumor volume exceeded 100 mm^3. VEGF-trap (25 mg/kg, indicated schedule) is SC injected as an AIA therapy. CA4P (50 mg/kg, every 2 days, Sigma-Aldrich) was IP injected as a VDA therapy. As a control, equal amounts of Fc or PBS was injected in the same manner. To knock down RhoJ in vivo, control or RhoJ siRNA (2 mg/kg, indicated schedule), which were encapsulated into aptEDB-LS complexes, were IV injected into tumor-bearing mice.
For hematoxylin and eosin (H&E) staining, tumors and indicated organs were fixed overnight in 4% paraformaldehyde (PFA). After tissue processing using standard procedures, samples were embedded in paraffin and cut into 3-1 μm sections followed by H&E staining. For immunofluorescence studies, samples were fixed in 1% PFA, dehydrated in 20% sucrose solution overnight, and embedded in tissue freezing medium (Leica). Frozen blocks were cut into 50-1 μm sections. Samples were blocked with 5% goat (or donkey) serum in PBST (0.03% Trition X-100 in PBS) and then incubated for 3 hr at room temperature (RT) with the following primary antibodies: anti-GFP (rabbit polyclonal, Millipore), anti-CD31 (hamster, clone 2H8, Millipore), anti-RhoJ (mouse, clone 1E4, Novus), anti-RhoJ (mouse, clone 1D7, OriGene), FITC-conjugated anti-c′-SMA (mouse, clone 1A4, Sigma-Aldrich), anti-VE-cadherin (rat, clone 11D4.1, BD Phamingen), anti-VE-cadherin (rabbit, clone D87F2, Cell Signaling), anti-PDGFRβ (rat, eBioscience), anti-Ter119 (rat, clone TER-119, eBioscience), anti-caspase-3 (rabbit polyclonal, R&D systems), anti-LYVE-1 (rabbit polyclonal, Angiobio), anti-pan-cytokeratin (mouse, clone AE1/AE3, Abcam), anti-melanin-A (rabbit polyclonal, Abcam), anti-collagen type IV (rabbit polyclonal, Cosmo Bio), or anti-cisplatin modified DNA (rat monoclonal, Abcam). After several washes, the samples were incubated for 2 hr at RT with the following secondary antibodies: FITC-, Cy3-, or Cy5-conjugated anti-hamster IgG (Jackson ImmunoResearch), FITC- or Cy3-conjugated anti-rabbit IgG (Jackson ImmunoResearch), Cy3-conjugated anti-rat IgG (Jackson ImmunoResearch), or Cy3-conjugated anti-mouse IgG (Jackson ImmunoResearch). Goat Fab fragment anti-mouse IgG (Jackson ImmunoResearch) was used to block endogenous mouse IgG to use mouse antibody on mouse tissues. F-actin was stained with acti-stain 555 phalloidin (Cytoskeleton). Nuclei were stained with 4′,6-diamidino-2-phenylindole (DAPI, Invitrogen). Then the samples were mounted with fluorescent mounting medium (DAKO) and immunofluorescent images were acquired using a Zeiss LSM510 confocal microscope (Carl Zeiss). To detect the hypoxic areas in the tumors, Hypoxyprobe-1™ (60 mg/kg, solid pimonidazole hydrochloride, Natural Pharmacia International) was IV injected 90 min before perfusion-fixation. The tumors were then harvested, sectioned, and stained with FITC-conjugated anti-Hypoxyprobe antibody.
Density measurement of blood vessels, metastasis, hemorrhagic area, leakage area, and perfusion area were performed with ImageJ software (http://rsb.info.nih.gov/ij). […]

[3] = tested on: HUVECs; assay: In vitro vascular permeability assay (FITC-dextran across EC monolayer); type: cell-based, human; conditions: siJ-ECs treated with CA4P (20 nM) compared to siC-ECs treated with PBS
Experimental: as §1
For in vitro vascular permeability assay, HUVECs were cultured on collagen-coated 1.0 μm-size pore insert (Millipore). After starvation for 12 hr, the cells were treated with or without VEGF (50 ng/ml) or CA4P (20 nM) for 2 hr and was then incubated with 70 kDa FITC-Dextran for 20 min. Each solution in plate wells were read with a Victor X2 multilabel plate reader.

[4] = tested on: RhoA-ROCK signaling pathway; assay: RhoA activity, ROCK activity and MLC phosphorylation in HUVECs; type: cell-based, human
Experimental: RhoA activities were determined using a RhoA activation assay kit (BK036, Cytoskeleton). […] Cells were lysed and the cell lysates were incubated with the rhotekin beads (50 μg/sample) for 1 h at 4° C., washed two times, and eluted with Laemmli sample buffer. Bound RhoA, which is an active form of RhoA, was analyzed by SDS-PAGE separation followed by immunoblotting with an anti-RhoA antibody (ARH03, Cyto skeleton). The amount of total RhoA was also analyzed by immunoblotting using the same antibody in order to normalize the relative activity of RhoA.
ROCK activities were determined using a ROCK activity assay kit (CSA001, Millipore). HUVECs were lysed and cell lysates were incubated for 1 hr at room temperature in 96-well plates pre-coated with recombinant MYPT1, which contain Thr696 residue that can be phosphorylated by active ROCK. The plates were washed and incubated with anti-phospho-MYPT1 (Thr696) antibody followed by incubation with HRP-conjugated secondary antibody and HRP substrate reagent. The relative amount of active ROCK was measured by a microplate reader at 450 nm (Bio-Rad).
At the indicated time, tumor tissues or cultured HUVECs were homogenized in ice-cold lysis buffer containing a protease inhibitor cocktail (Roche). […] Chemiluminescent signals were developed with HRP substrate (Millipore) and detected with a LAS-1000 mini (Fuji film).

[5] = tested on: LLC tumor; assay: LLC tumor model, cytokeratin+ metastasis to inguinal LNs; type: in vivo, mouse; conditions: CA4P 50 mg/kg
Experimental: as §2, with “tumor-bearing mice. […]” for “tumor-bearing mice.”

[6] = tested on: LLC tumor; assay: LLC implantation tumor model, tumor growth; type: in vivo, mouse; conditions: for maintenance of tumor growth response to CA4P: CA4P 50 mg/kg; for decrease of LLC tumor growth: RhoJ-WT mice
Experimental: as §2

[7] = tested on: LLC tumor; assay: Intratumoral cisplatin-modified DNA area in LLC tumor; type: in vivo, mouse; conditions: RhoJ-KO mice compared to RhoJ-WT mice
Experimental: as §2, with “tumor-bearing mice. […]” for “tumor-bearing mice.”

[8] = tested on: LLC tumor; assay: LLC tumor model, intratumoral necrosis and hemorrhage (H&E); type: in vivo, mouse; conditions: RhoJ-KO mice treated with cisplatin compared to RhoJ-WT mice treated with cisplatin; 2 weeks after treatment
Experimental: To generate implantation tumor models, suspensions of tumor cells (1×10^6 cells in 100 μl) were SC injected into the dorsal flank of 8 to 10 weeks old mice. Tumor volumes were measured at given time points. Tumor volume was calculated according to the formula, 0.5×A×B^2, where A is the largest diameter of a tumor and B is its perpendicular diameter. Tumor growth rate is defined as increased tumor volume relative to 2 days before. Indicated days later, the mice were anesthetized and tissues were harvested for further analyses. […]
Density measurement of blood vessels, metastasis, hemorrhagic area, leakage area, and perfusion area were performed with ImageJ software (http://rsb.info.nih.gov/ij). For blood vessel density, CD31^+ area per random 0.42 mm^2 areas was measured in the peri- and intratumoral regions. To determine the amount of blood vessels that express RhoJ, GFP^+&CD31^+ area per CD31^+ area in five random 0.42 mm^2 areas were calculated. In addition, to find the percentage of CD31^+ endothelial cells within RhoJ-GFP expressing cells, the GFP^+&CD31^+ area per total GFP^+ area was also calculated. […] The area of cytokeratin^+ fluorescence was presented as % per total sectioned area of lymph node. […] The extent of hemorrhage was measured as a % of Ter-119^+ area per random 0.24 mm^2 areas. Vascular leakage was quantified as the dextran^+ area % per random 0.42 mm^2.

[9] = LLC implanted WT mice, en-siJ 2 mg/kg, VEGF-trap 25 mg/kg, 12 days after first treatment
[10] = RhoJ-KO mice, VEGF-trap 25 mg/kg, 9 days after first treatment
[11] = RhoJ-WT mice, VEGF-trap 25 mg/kg, 9 days after first treatment

COc1ccc(/C=C\c2cc(OC)c(OC)c(OC)c2)cc1OP(=O)(O)O [CA4P, combretastatin-A4-phosphate]
EC tube formation [1]: almost complete disruption | reduction of vascular density, intratumoral region ([2]; RhoJ-KO mice): 60% | reduction of vascular density, peritumoral region ([2]; RhoJ-KO mice): 59% | reduction of vascular density, intratumoral region ([2]; RhoJ-WT mice): 31% | reduction of vascular density, peritumoral region ([2]; RhoJ-WT mice): 13% | increase in permeability across the EC monolayer [3]: 2.9 fold | RhoA-ROCK signaling pathway (MLC phosphorylation) ([4]; RhoJ knockdown in combination with CA4P 20 nM, 30 min): further activated | reduction of metastasis (inguinal LNs) ([5]; RhoJ-KO mice): 67% | reduction of metastasis (inguinal LNs) ([5]; RhoJ-WT mice): no reduction | additional inhibition in tumor growth ([6]; LLC, RhoJ-KO mice, CA4P 50 mg/kg IP every 2 days): 79% | reduction in tumor growth ([6]; LLC, WT mice, CA4P 50 mg/kg IP every 2 days): 18% | maintenance of tumor growth response to CA4P ([6]; RhoJ-KO mice): durable response | maintenance of tumor growth response to CA4P ([6]; WT mice): not maintained

N.N.[Cl][Pt][Cl] [Cisplatin, cisplatin]
increase in intratumoral accumulation of cisplatin [7]: ~2.0 fold | increased intratumoral necrosis [8]: 80% | delay of LLC tumor growth ([6]; RhoJ-KO mice, cisplatin 10 mg/kg IP once every week from tumor volume >100 mm^3): 90% | decrease of LLC tumor growth ([6]; cisplatin 10 mg/kg IP once every week from tumor volume >100 mm^3): 64%

C[C@@H](N)[C@H]1CC[C@H](C(=O)Nc2ccncc2)CC1 [Y-27632]
RhoA activity, ROCK activity and MLC phosphorylation increased in siJ-ECs, after ROCK inhibitor ([4]; siJ-ECs treated with Y-27632 (up to 20 μM) for 1 hr): almost completely diminished

VEGF-trap: VEGF decoy receptor; recombinant protein from stable CHO cell lines, sequesters VEGF
decrease of tumor vessel density, intratumoral region [2, 9]: ~50% | decrease of tumor vessel density, peritumoral region [2, 9]: ~45% | reduction of tumor vascular density, intratumoral area [2, 10]: 68% | reduction of tumor vascular density, peritumoral area [2, 10]: 66% | decrease of tumor vascular density, intratumoral area [2, 11]: 49% | decrease of tumor vascular density, peritumoral area [2, 11]: 43% | delay of LLC tumor growth ([6]; RhoJ-KO mice, VEGF-trap 25 mg/kg SC, vs Fc): 88% | decrease of LLC tumor growth ([6]; VEGF-trap 25 mg/kg SC, vs Fc): 47%
